{
  "source": "patent US12514909B2",
  "about": "“Lactate-protected hypoglycemia to treat glycolysis dependent pathological conditions, in particular cancer” (priority 2018, dated 2026)",
  "key": {"[1]": {"conditions": "cited from earlier work"}, "[2]": {"test": "Lactate-protected hypoglycemia (HG-HL) in anesthetized pig with extracorporeal HLa infusion", "assay_type": "in vivo", "experimental": "Then, after hyperlactatemia was established, an insulin bolus and continuous infusion of insulin were titrated to achieve a [Glu] of between 1.3 and 1.7 mmol/L (25 to 30 mg/dL). Once the HG (1.5 mmol/L) HL(8 mmol/L) state was achieved, this was maintained for 4 h. Then normoglycemia was allowed to return.\nThis example entails achievement and sustaining [Glu] at ˜1.5 mmol/L for 4 hours in a pig under a [Lac] of 8 mmol/L.\nThe preparation started the day before the intervention at 17:00. No food was given to the pig after this time.\nOn the morning of the intervention the pig ate a small fatty snack combined with 500 mg of metformin. The inhibitory action of metformin on gluconeogenesis is expected to start within 3 h.\nA bolus of 0.03 mg/kg medetomidine, a bolus of 4 mg/kg tiletamine-zolazepam and a bolus of 2 to 2.5 mg/kg 1% propofol were delivered intravenously. After intubation, volume-controlled ventilation was started. The respiratory rate was adjusted to target etCO2of 35 to 45 mmHg and a tidal volume of 8 to 10 ml/kg. The tidal volume was later adjusted when required on etCO2, pCO2 and pH. Then a 2-lumen dialysis catheter was surgically placed into the internal jugular vein. An unfractionated heparin bolus of 5000 IU (200 IU/kg) was administered and CVVH was initiated with unfractionated heparin (400 IU/ml) at 1 ml/h, titrated to an activated clotting time (ACT) of 250 to 300 seconds.\nCounter-response inhibition was achieved by subsequent intravenous delivery of labetalol (5 mg/ml) at 3 ml/h titrated to a relative heart rate reduction of 10/m, and an intravenous bolus of 25 μg octreotide (10 μg/ml), then the octreotide continuous infusion was proportionally adjusted to keep [Glu] in the desired hypoglycemic range.\nDepending on the subsequent [Glu], insulin infusion rates were varied between 0 to 60 U/h. If necessary, an additional bolus dose of insulin was given at least 30 minutes after the initial delivery using the same criteria as described before.\nOnce both a [Glu] of 1.3 to 1.7 and a [Lac] of 8 to 10 mmol/L was reached, this HG(1.5)HL(8) state was maintained for 4 hours using the clamping technique. Approximately halfway during the HG(1.5)HL(8)-phase the octreotide infusion was stopped as the T1/2 of octreotide is longer than T^1/2 of insulin and because sustained suppression of the hypoglycemic counter response by octreotide might prolong the duration of glucose 50% support during the normoglycemia restoration phase.\nDuring the HG-HL phase, sliding scale adjustments of insulin and glucose 50% pumps were executed.\nThe glucose 50% infusion rate was adjusted and eventually tapered to zero until stable normoglycemia was achieved."}},
  "data": [
    {"smiles": "CC(O)C(=O)[O-].[Na+]", "note": "(centres unmarked) [sodium lactate]", "values": [
      {"measurement": "side effects of intravenous administration of large amounts", "setting": "[1]", "value": "systemic metabolic alkalosis and hypernatremia"}
    ]},
    {"smiles": "CC(O)C(=O)O", "note": "(centres unmarked) [HLa, lactic acid]", "values": [
      {"measurement": "arterial pH and sodium levels throughout the experiment", "setting": "[2]; 30 kg pig, 40% HLa via veno-venous extracorporeal circuit, [Lac] 8 mmol/L, [Glu] ~1.5 mmol/L for 4 h, with insulin, glucose 50%, octreotide, labetalol, metformin", "value": "maintained within the desired range"},
      {"measurement": "hemodynamic instabilities, electrocardiographic or rhythm disturbances", "setting": "[2]; 30 kg pig, HG(1.5)HL(8) state for 4 h", "value": "no hemodynamic instabilities, electrocardiographic or rhythm disturbances were observed"},
      {"measurement": "time after end of the HG-HL-phase until normoglycemia without exogenous glucose or lactate support", "setting": "[2]; 30 kg pig, after 4 h HG(1.5)HL(8)", "value": 90, "unit": "min"},
      {"measurement": "metabolic alkalosis or hypernatremia on administration of high doses", "setting": "[2]; high doses of HLa instead of NaLa", "value": "did not lead to metabolic alkalosis or hypernatremia"}
    ]}
  ]
}
